From ChEMBL document CHEMBL1201862, “PubChem BioAssay data set” (2004)
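These data come from cells grown in 96-well plates and exposed to compound for 48 hours at five concentrations. At the GI50, growth is halved.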 Active and inactive are the calls of the source. Rule as the data show it: active = GI50 up to about 1.1 µM and inactive = higher. Where a SMILES comes first, the peptide text is derived from it. [ ]: non-standard residue; d: D form. Phe(4-Cl) = N[CH](Cc1ccc(Cl)cc1)C(=O)O

Key:
Test in all cases: NCI tumour cell line growth inhibition, 48 h
BT-549 = test system: BT-549
OVCAR-3 = test system: OVCAR-3
SK-MEL-28 = test system: SK-MEL-28
SNB-75 = test system: SNB-75
OVCAR-5 = test system: OVCAR-5
NCI-H460 = test system: NCI-H460
HCC 2998 = test system: HCC 2998
SF-295 = test system: SF-295
DMS-273 = test system: DMS-273
SF-268 = test system: SF-268
NCI-H522 = test system: NCI-H522
OVCAR-8 = test system: OVCAR-8
HT-29 = test system: HT-29
UACC-62 = test system: UACC-62
MDA-MB-435 = test system: MDA-MB-435
HOP-62 = test system: HOP-62
SN12C = test system: SN12C
HCT-15 = test system: HCT-15
RXF 631 = test system: RXF 631
SNB-19 = test system: SNB-19
Hs-578T = test system: Hs-578T
SR = test system: SR
MCF7 = test system: MCF7
DU-145 = test system: DU-145
RPMI-8226 = test system: RPMI-8226
M14 = test system: M14
KM-20L2 = test system: KM-20L2
HCT-116 = test system: HCT-116
HOP-92 = test system: HOP-92
XF498 = test system: XF498
SNB-78 = test system: SNB-78
UO-31 = test system: UO-31
TK-10 = test system: TK-10
NCI/ADR-RES = test system: NCI/ADR-RES
MDA-N = test system: MDA-N
ACHN = test system: ACHN
SK-MEL-2 = test system: SK-MEL-2
KM12 = test system: KM12
M19-MEL = test system: M19-MEL
K562 = test system: K562
DMS-114 = test system: DMS-114
786-0 = test system: 786-0
A498 = test system: A498
MOLT-4 = test system: MOLT-4
CAKI-1 = test system: CAKI-1
LOX IMVI = test system: LOX IMVI
NCI-H226 = test system: NCI-H226
Malme-3M = test system: Malme-3M
SK-OV-3 = test system: SK-OV-3
SF-539 = test system: SF-539
NCI-H23 = test system: NCI-H23
U-251 = test system: U-251
COLO 205 = test system: COLO 205
IGROV-1 = test system: IGROV-1
HL-60 = test system: HL-60
MDA-MB-231 = test system: MDA-MB-231
LXFL 529 = test system: LXFL 529
T47D = test system: T47D
A549 = test system: A549
UACC-257 = test system: UACC-257
SW-620 = test system: SW-620
SK-MEL-5 = test system: SK-MEL-5
RXF 393 = test system: RXF 393
DLD-1 = test system: DLD-1
CCRF-CEM = test system: CCRF-CEM
OVCAR-4 = test system: OVCAR-4
EKVX = test system: EKVX
PC-3 = test system: PC-3

What does the source list for `CCN(CC)CCCC(C)Nc1c2ccc(Cl)cc2nc2ccc(OC)cc12` (stereo not given)?
GI50 (BT-549): 2470 nM (inactive); GI50 (OVCAR-3): 2850 nM (inactive); GI50 (SK-MEL-28): 1610 nM (inactive); GI50 (SNB-75): 1470 nM (inactive); GI50 (OVCAR-5): 2000 nM (inactive); GI50 (NCI-H460): 673 nM (active); GI50 (HCC 2998): 1360 nM (inactive); GI50 (SF-295): 729 nM (active); GI50 (DMS-273): 548 nM (active); GI50 (SF-268): 2240 nM (inactive); GI50 (NCI-H522): 1350 nM (inactive); GI50 (OVCAR-8): 1050 nM (active); GI50 (HT-29): 1030 nM (active); GI50 (UACC-62): 1540 nM (inactive); GI50 (MDA-MB-435): 1470 nM (inactive); GI50 (HOP-62): 2220 nM (inactive); GI50 (SN12C): 2320 nM (inactive); GI50 (HCT-15): 2290 nM; GI50 (RXF 631): 1770 nM (inactive); GI50 (SNB-19): 5360 nM (inactive); GI50 (Hs-578T): 3370 nM (inactive); GI50 (SR): 895 nM (active); GI50 (MCF7): 2080 nM (inactive); GI50 (DU-145): 3560 nM (inactive); GI50 (RPMI-8226): 2050 nM (inactive); GI50 (M14): 1810 nM (inactive); GI50 (KM-20L2): 1330 nM (inactive); GI50 (HCT-116): 610 nM (active); GI50 (HOP-92): 1140 nM (inactive); GI50 (XF498): 1730 nM (inactive); GI50 (SNB-78): 3230 nM (inactive); GI50 (UO-31): 2080 nM (inactive); GI50 (TK-10): 3130 nM (inactive); GI50 (NCI/ADR-RES): 1860 nM (inactive); GI50 (MDA-N): 1780 nM (inactive); GI50 (ACHN): 2420 nM (inactive); GI50 (SK-MEL-2): 1670 nM (inactive); GI50 (KM12): 1630 nM (inactive); GI50 (M19-MEL): 1760 nM (inactive); GI50 (K562): 824 nM (active); GI50 (DMS-114): 1700 nM (inactive); GI50 (786-0): 993 nM (active); GI50 (A498): 2480 nM (inactive); GI50 (MOLT-4): 518 nM (active); GI50 (CAKI-1): 1590 nM (inactive); GI50 (LOX IMVI): 1070 nM (active); GI50 (NCI-H226): 4000 nM (inactive); GI50 (Malme-3M): 1900 nM (inactive); GI50 (SK-OV-3): 4840 nM (inactive); GI50 (SF-539): 1670 nM (inactive); GI50 (NCI-H23): 1610 nM (inactive); GI50 (U-251): 1290 nM (inactive); GI50 (COLO 205): 1240 nM (inactive); GI50 (IGROV-1): 1760 nM (inactive); GI50 (HL-60): 2030 nM (inactive); GI50 (MDA-MB-231): 10100 nM (inactive); GI50 (LXFL 529): 1530 nM (inactive); GI50 (T47D): 2310 nM (inactive); GI50 (A549): 1650 nM (inactive); GI50 (UACC-257): 1850 nM (inactive); GI50 (SW-620): 637 nM (active); GI50 (SK-MEL-5): 1710 nM (inactive); GI50 (RXF 393): 1200 nM (inactive); GI50 (DLD-1): 1640 nM (inactive); GI50 (CCRF-CEM): 1000 nM (active); GI50 (OVCAR-4): 1650 nM (inactive); GI50 (EKVX): 4610 nM (inactive); GI50 (PC-3): 1780 nM (inactive)

With `CC(O)C(NC(=O)C(Cc1ccccc1)NC(=O)C(NC(=O)C(CCCCN)NC(=O)C(Cc1c[nH]c2ccccc12)NC(=O)C(Cc1ccc(O)cc1)NC(=O)C(Cc1ccc(Cl)cc1)NC(=O)C(N)Cc1ccccc1)C(C)O)C(N)=O` (stereo not given) (H-F[Phe(4-Cl)]YWKTFT-NH2; configuration not given here) as the molecule, how does the GI50 (OVCAR-3) read?
Its GI50 is 17400 nM (inactive).

What about the GI50 (SK-MEL-28) of the same molecule?
Its GI50 is 20700 nM (inactive).

And the GI50 (SNB-75)?
Its GI50 is 21000 nM (inactive).

What about the GI50 (NCI-H460) of the same molecule?
Its GI50 is 13700 nM (inactive).

What about the GI50 (HCC 2998) of the same molecule?
Its GI50 is 25400 nM (inactive).

And the GI50 (SF-295)?
The GI50 was 8530 nM (inactive).

What about the GI50 (DMS-273) of the same molecule?
The GI50 was 33000 nM (inactive).

And the GI50 (OVCAR-8)?
Its GI50 is 23900 nM (inactive).

And the GI50 (HT-29)?
Its GI50 is 23400 nM (inactive).

And the GI50 (UACC-62)?
The GI50 was 19100 nM (inactive).

What about the GI50 (HOP-62) of the same molecule?
Its GI50 is 20500 nM (inactive).

And the GI50 (SN12C)?
The GI50 was 41800 nM (inactive).

What about the GI50 (HCT-15) of the same molecule?
The GI50 was 17900 nM.

And the GI50 (RXF 631)?
The GI50 was 19400 nM (inactive).

What about the GI50 (SNB-19) of the same molecule?
Its GI50 is 18400 nM (inactive).

What about the GI50 (RPMI-8226) of the same molecule?
Its GI50 is 14000 nM (inactive).

What about the GI50 (M14) of the same molecule?
Its GI50 is 22700 nM (inactive).

And the GI50 (KM-20L2)?
The GI50 was 21200 nM (inactive).

What about the GI50 (HCT-116) of the same molecule?
The GI50 was 18900 nM (inactive).

And the GI50 (XF498)?
Its GI50 is 14200 nM (inactive).

And the GI50 (SNB-78)?
The GI50 was 25400 nM (inactive).

And the GI50 (UO-31)?
The GI50 was 19000 nM (inactive).

What about the GI50 (ACHN) of the same molecule?
Its GI50 is 21900 nM (inactive).

What about the GI50 (SK-MEL-2) of the same molecule?
Its GI50 is 19900 nM (inactive).

What about the GI50 (KM12) of the same molecule?
Its GI50 is 13500 nM (inactive).

And the GI50 (M19-MEL)?
The GI50 was 21500 nM (inactive).

What about the GI50 (K562) of the same molecule?
Its GI50 is 15600 nM (inactive).

What about the GI50 (DMS-114) of the same molecule?
The GI50 was 17300 nM (inactive).

And the GI50 (786-0)?
The GI50 was 22400 nM (inactive).

What about the GI50 (A498) of the same molecule?
Its GI50 is 18800 nM (inactive).

And the GI50 (MOLT-4)?
Its GI50 is 25900 nM (inactive).

What about the GI50 (CAKI-1) of the same molecule?
The GI50 was 21200 nM (inactive).

And the GI50 (SK-OV-3)?
Its GI50 is 27600 nM (inactive).

What about the GI50 (SF-539) of the same molecule?
Its GI50 is 20000 nM (inactive).

What about the GI50 (NCI-H23) of the same molecule?
Its GI50 is 19800 nM (inactive).

And the GI50 (U-251)?
Its GI50 is 18700 nM (inactive).

What about the GI50 (COLO 205) of the same molecule?
The GI50 was 25900 nM (inactive).

What about the GI50 (IGROV-1) of the same molecule?
Its GI50 is 19900 nM (inactive).

And the GI50 (HL-60)?
The GI50 was 15300 nM (inactive).

And the GI50 (LXFL 529)?
Its GI50 is 18400 nM (inactive).

And the GI50 (A549)?
The GI50 was 16200 nM (inactive).

What about the GI50 (UACC-257) of the same molecule?
The GI50 was > 10000 nM (inactive).

And the GI50 (RXF 393)?
Its GI50 is 16000 nM (inactive).

And the GI50 (DLD-1)?
Its GI50 is 20300 nM (inactive).

What about the GI50 (CCRF-CEM) of the same molecule?
Its GI50 is 15800 nM (inactive).

And the GI50 (OVCAR-4)?
Its GI50 is 23900 nM (inactive).

What about the GI50 (EKVX) of the same molecule?
Its GI50 is 16400 nM (inactive).
